Reference: the supplement of paper PMC11451515

How the values were obtained:
Details in all cases: 48 h
SEM cells [1] = experiment: AUC of viability dose-response curve (% viability x log10 dose units); higher = less sensitive
Procedure, shortened: (§1)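 Leukemia cells adapted to each medium were seeded at 500 or 1000 cells/well in 1536-well plates and dosed with library compounds in DMSO at 11 threefold doses from 47 μM to 0.79 nM for 48 h at 37°C. CellTiter-Glo One luminescence was normalised per plate to DMSO and cell-free wells, then fitted with a four-parameter log-logistic model over log10 doses. Area under the curve was taken from this fit by the trapezoidal rule, with curves above full viability scaled and curves failing quality control removed.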

P12-Ichikawa [2] = experiment: as above
Procedure, shortened: as §1

NOMO1 [3] = experiment: as above
Procedure, shortened: as §1

SEM cells [4] = experiment: cell viability relative to DMSO control; higher = less cytotoxic
Procedure, shortened: (§2)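 Library compounds in DMSO were pin-dosed in an 11-point threefold series (47 μM to 0.79 nM) onto leukemia cells in 1536-well plates (5 μl). Plates held 500 cells/well of NOMO1 or SEM or 1000 cells/well of P12-Ichikawa, each adapted for at least four passages in each medium. Luminescence was read with CellTiter-Glo One after 48 h at 37°C. Viability means the per-plate percentage relative to DMSO wells, using cell-free wells as background.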

P12-Ichikawa [5] = experiment: as above
Procedure, shortened: as §2

NOMO1 [6] = experiment: as above
Procedure, shortened: as §2

O=C([O-])C[C@H](O)C[C@H](O)/C=C/c1c(C2CC2)nc2ccccc2c1-c1ccc(F)cc1
AUC of viability dose-response curve
Details | NOMO1 [3] | P12-Ichikawa [2] | SEM cells [1]
HPLM + 10% dialyzed FBS | 443 | 407 | 395
RPMI 5 mM glucose + 10% FBS | 450 | 375 | 418
RPMI 5 mM glucose + 10% dialyzed FBS | 440 | 390 | 413

cell viability [%]
Details | NOMO1 [6] | P12-Ichikawa [5] | SEM cells [4]
HPLM + 10% dialyzed FBS, 0.000781 µM | 101 | 107 | 82.3
HPLM + 10% dialyzed FBS, 0.00234 µM | 104 | 111 | 73.1
HPLM + 10% dialyzed FBS, 0.00702 µM | 130 | 115 | 97.5
HPLM + 10% dialyzed FBS, 0.0211 µM | 120 | 110 | 102
HPLM + 10% dialyzed FBS, 0.0632 µM | 125 | 117 | 89.1
HPLM + 10% dialyzed FBS, 0.19 µM | 116 | 114 | 90
HPLM + 10% dialyzed FBS, 0.569 µM | 112 | 110 | 86.1
HPLM + 10% dialyzed FBS, 1.71 µM | 132 | 103 | 83.9
HPLM + 10% dialyzed FBS, 5.12 µM | 109 | 69.3 | 87.4
HPLM + 10% dialyzed FBS, 15.4 µM | 87.7 | 49.1 | 70
HPLM + 10% dialyzed FBS, 46.1 µM | 12 | 26.2 | 18.9
RPMI 5 mM glucose + 10% FBS, 0.000781 µM | 108 | 110 | 99.4
RPMI 5 mM glucose + 10% FBS, 0.00234 µM | 116 | 117 | 85.2
RPMI 5 mM glucose + 10% FBS, 0.00702 µM | 122 | 116 | 99.1
RPMI 5 mM glucose + 10% FBS, 0.0211 µM | 114 | 113 | 97.9
RPMI 5 mM glucose + 10% FBS, 0.0632 µM | 111 | 124 | 108
RPMI 5 mM glucose + 10% FBS, 0.19 µM | 112 | 116 | 99.4
RPMI 5 mM glucose + 10% FBS, 0.569 µM | 116 | 105 | 96.7
RPMI 5 mM glucose + 10% FBS, 1.71 µM | 134 | 87.9 | 109
RPMI 5 mM glucose + 10% FBS, 5.12 µM | 109 | 52.3 | 81.6
RPMI 5 mM glucose + 10% FBS, 15.4 µM | 97.8 | 19.5 | 43.7
RPMI 5 mM glucose + 10% FBS, 46.1 µM | 23.7 | 14.7 | 10.7
RPMI 5 mM glucose + 10% dialyzed FBS, 0.000781 µM | 114 | 113 | 99.1
RPMI 5 mM glucose + 10% dialyzed FBS, 0.00234 µM | 109 | 114 | 81
RPMI 5 mM glucose + 10% dialyzed FBS, 0.00702 µM | 110 | 113 | 91.7
RPMI 5 mM glucose + 10% dialyzed FBS, 0.0211 µM | 122 | 107 | 95.9
RPMI 5 mM glucose + 10% dialyzed FBS, 0.0632 µM | 116 | 119 | 112
RPMI 5 mM glucose + 10% dialyzed FBS, 0.19 µM | 119 | 116 | 85
RPMI 5 mM glucose + 10% dialyzed FBS, 0.569 µM | 129 | 115 | 79.6
RPMI 5 mM glucose + 10% dialyzed FBS, 1.71 µM | 115 | 93.6 | 97.9
RPMI 5 mM glucose + 10% dialyzed FBS, 5.12 µM | 101 | 58.2 | 94.5
RPMI 5 mM glucose + 10% dialyzed FBS, 15.4 µM | 86.4 | 36.9 | 69.1
RPMI 5 mM glucose + 10% dialyzed FBS, 46.1 µM | 22.9 | 19.3 | 13.6

CCOc1cc2ncc(C#N)c(Nc3ccc(F)c(Cl)c3)c2cc1NC(=O)/C=C/CN(C)C
AUC of viability dose-response curve
Details | NOMO1 [3] | P12-Ichikawa [2] | SEM cells [1]
HPLM + 10% dialyzed FBS | 323 | 312 | 321
RPMI 5 mM glucose + 10% FBS | 385 | 338 | 300
RPMI 5 mM glucose + 10% dialyzed FBS | 353 | 320 | 312

cell viability [%]
Details | NOMO1 [6] | P12-Ichikawa [5] | SEM cells [4]
HPLM + 10% dialyzed FBS, 0.000781 µM | 120 | 118 | 88.3
HPLM + 10% dialyzed FBS, 0.00234 µM | 133 | 116 | 118
HPLM + 10% dialyzed FBS, 0.00702 µM | 111 | 131 | 120
HPLM + 10% dialyzed FBS, 0.0211 µM | 114 | 122 | 123
HPLM + 10% dialyzed FBS, 0.0632 µM | 127 | 116 | 118
HPLM + 10% dialyzed FBS, 0.19 µM | 84.9 | 71.7 | 73.1
HPLM + 10% dialyzed FBS, 0.569 µM | 80.9 | 80.9 | 71
HPLM + 10% dialyzed FBS, 1.71 µM | 57 | 61.1 | 55.6
HPLM + 10% dialyzed FBS, 5.12 µM | 50.8 | 41.6 | 37.4
HPLM + 10% dialyzed FBS, 15.4 µM | 42.7 | 21.1 | 20.1
HPLM + 10% dialyzed FBS, 46.1 µM | 4.8 | 2.69 | 4.15
RPMI 5 mM glucose + 10% FBS, 0.000781 µM | 118 | 121 | 75.1
RPMI 5 mM glucose + 10% FBS, 0.00234 µM | 128 | 120 | 110
RPMI 5 mM glucose + 10% FBS, 0.00702 µM | 116 | 123 | 108
RPMI 5 mM glucose + 10% FBS, 0.0211 µM | 124 | 128 | 114
RPMI 5 mM glucose + 10% FBS, 0.0632 µM | 123 | 121 | 116
RPMI 5 mM glucose + 10% FBS, 0.19 µM | 118 | 95.2 | 58.9
RPMI 5 mM glucose + 10% FBS, 0.569 µM | 102 | 85.3 | 52.1
RPMI 5 mM glucose + 10% FBS, 1.71 µM | 85.6 | 71.9 | 40.2
RPMI 5 mM glucose + 10% FBS, 5.12 µM | 66.2 | 57.6 | 24.5
RPMI 5 mM glucose + 10% FBS, 15.4 µM | 76.3 | 26.3 | 11.5
RPMI 5 mM glucose + 10% FBS, 46.1 µM | 10.4 | 5.42 | 3.17
RPMI 5 mM glucose + 10% dialyzed FBS, 0.000781 µM | – | – | 79.9
RPMI 5 mM glucose + 10% dialyzed FBS, 0.00234 µM | – | – | 115
RPMI 5 mM glucose + 10% dialyzed FBS, 0.00702 µM | – | – | 131
RPMI 5 mM glucose + 10% dialyzed FBS, 0.0211 µM | – | – | 120
RPMI 5 mM glucose + 10% dialyzed FBS, 0.0632 µM | – | – | 126
RPMI 5 mM glucose + 10% dialyzed FBS, 0.19 µM | – | – | 66.2
RPMI 5 mM glucose + 10% dialyzed FBS, 0.569 µM | – | – | 67.3
RPMI 5 mM glucose + 10% dialyzed FBS, 1.71 µM | – | – | 52
RPMI 5 mM glucose + 10% dialyzed FBS, 5.12 µM | – | – | 29.9
RPMI 5 mM glucose + 10% dialyzed FBS, 15.4 µM | – | – | 11.7
RPMI 5 mM glucose + 10% dialyzed FBS, 46.1 µM | – | – | 3.53
